The record followed here is paper PMC2233883 (The Journal of General Physiology, 2004).

This assay has as its target T1, MloK1 (Mesorhizobium japonicum, UniProt Q98GN8).
T1 sequence (Q98GN8 1-355): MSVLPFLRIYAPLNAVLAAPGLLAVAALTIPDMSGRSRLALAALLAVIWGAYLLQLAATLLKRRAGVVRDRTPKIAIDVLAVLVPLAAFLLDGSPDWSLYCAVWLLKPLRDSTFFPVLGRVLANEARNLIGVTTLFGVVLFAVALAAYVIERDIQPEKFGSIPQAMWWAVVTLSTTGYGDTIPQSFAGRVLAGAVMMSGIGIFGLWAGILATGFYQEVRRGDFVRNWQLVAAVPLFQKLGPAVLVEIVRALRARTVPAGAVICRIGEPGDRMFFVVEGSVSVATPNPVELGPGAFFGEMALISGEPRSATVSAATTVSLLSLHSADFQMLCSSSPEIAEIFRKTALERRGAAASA
The assay can be described thus: […]+ uptake into MloK1-reconstituted liposomes, dose-response. It is filed as biochemical.

Molecules are shown by their SMILES.

In turn, `Nc1nc2c(ncn2[C@@H]2O[C@@H]3COP(=O)(O)O[C@H]3[C@H]2O)c(=O)[nH]1` [cGMP] returned an EC50 of 600 nM.

A word on the EC50: it is the concentration that produces a half-maximal response. Higher therefore signals a less potent agent.
